Results on 20 compounds are retold here after ChEMBL document CHEMBL3865822, “New palbociclib analogues modified at the terminal piperazine ring and their anticancer activities” (Eur J Med Chem, 2016).

One may read the IC50 as the concentration that inhibits the measured activity by half.

Data set [1] is described as follows: Cytotoxicity against human MCF7 cells assessed as reduction in cell viability after 48 hrs by CCK8 assay. The class given is functional, cell-based. To be noted: MCF7, 48 h. (Tetrazolium dyes change colour on reduction, which living cells bring about.)
Data set [2] can be described thus: Cytotoxicity against human MDA-MB-453 cells assessed as reduction in cell viability after 48 hrs by CCK8 assay. The class given is functional, cell-based. The conditions noted are these: MDA-MB-453, 48 h.
In data set [3] the target is Cyclin-dependent kinase 6 (Homo sapiens, UniProt Q00534). Briefly: Inhibition of CDK6 (unknown origin) using histone H1 as substrate after 10 mins in presence of [gamma32P]ATP.
For data set [4], the target named is Cyclin-dependent kinase 4 (Homo sapiens, UniProt P11802). Kind of data set: Inhibition of CDK4 (unknown origin) using histone H1 as substrate after 10 mins in presence of [gamma32P]ATP.
Data set [5] can be described thus: Cytotoxicity against human MDA-MB-231 cells assessed as reduction in cell viability after 48 hrs by CCK8 assay. Format: functional, cell-based. The conditions noted are these: MDA-MB-231, 48 h.
Data set [6] deals with MCF7. Kind of data set: Antitumor activity against human […] human MCF7 cells xenografted in RNU rat assessed as tumor growth inhibition at 100 mg/kg/day, ig administered for 14 days measured on day 15. The class given is functional, organism-based. In general terms: Xenograft models place foreign cells or tissue in a host animal.
For data set [7], the system named is MCF7. Kind of data set: Antitumor activity against […] human MCF7 cells xenografted in RNU rat assessed as tumor growth inhibition at 122.4 mg/kg/day, ig administered for 14 days measured on day 15. Format: functional, organism-based.
Data set [8] concerns Rattus norvegicus. Kind of data set: Toxicity in RNU rat xenografted with human MCF7 cells assessed as reduction in body weight at 122.4 mg/kg/day, ig administered for 14 days measured daily during compound dosing. The class given is organism-based. To be noted: in vivo, po, 336 h.
Data set [9] has as its system Rattus norvegicus. Briefly: Toxicity in RNU rat xenografted with human MCF7 cells assessed as reduction in body weight at 128.8 mg/kg/day, ig administered for 14 days measured daily during compound dosing. Format: organism-based. The conditions noted are these: in vivo, po, 336 h.
In data set [10] the test system is MCF7. Briefly: Antitumor activity against […] human MCF7 cells xenografted in RNU rat assessed as tumor growth inhibition at 128.8 mg/kg/day, ig administered for 14 days measured on day 15. Format: functional, organism-based.

Calls of active or inactive are those of the source. No cut-off for these calls is given here.

Cyclin-dependent kinase 4, sequence (P11802 whole entry): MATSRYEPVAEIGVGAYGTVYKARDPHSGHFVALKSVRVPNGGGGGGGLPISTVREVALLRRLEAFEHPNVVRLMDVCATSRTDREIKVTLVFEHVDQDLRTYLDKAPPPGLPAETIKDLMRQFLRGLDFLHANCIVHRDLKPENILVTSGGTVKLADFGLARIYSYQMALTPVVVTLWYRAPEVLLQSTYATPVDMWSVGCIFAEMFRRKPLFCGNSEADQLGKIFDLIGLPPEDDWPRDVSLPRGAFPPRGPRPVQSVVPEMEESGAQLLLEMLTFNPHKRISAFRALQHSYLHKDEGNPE
Cyclin-dependent kinase 6, sequence (Q00534 whole entry): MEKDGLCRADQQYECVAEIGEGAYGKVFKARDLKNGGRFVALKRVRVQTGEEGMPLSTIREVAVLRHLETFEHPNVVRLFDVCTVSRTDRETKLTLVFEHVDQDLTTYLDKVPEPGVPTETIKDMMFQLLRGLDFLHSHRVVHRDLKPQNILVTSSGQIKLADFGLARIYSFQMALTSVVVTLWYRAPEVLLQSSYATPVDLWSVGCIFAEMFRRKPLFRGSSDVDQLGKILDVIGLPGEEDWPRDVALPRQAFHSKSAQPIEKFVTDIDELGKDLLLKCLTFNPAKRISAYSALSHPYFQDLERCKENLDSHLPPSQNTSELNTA

For `CC(=O)c1c(C)c2cnc(Nc3ccc(N4CCN(C(=O)CC#N)CC4)cn3)nc2n(C2CCCC2)c1=O`, in data set [1], the IC50 was 1520 nM.
As to `CCCCOC(=O)N1CCN(c2ccc(Nc3ncc4c(C)c(C(C)=O)c(=O)n(C5CCCC5)c4n3)nc2)CC1`, the IC50 in data set [1] is above 2000 nM.
Regarding `CC(=O)OCOC(=O)N1CCN(c2ccc(Nc3ncc4c(C)c(C(C)=O)c(=O)n(C5CCCC5)c4n3)nc2)CC1`, the IC50 in [2] is 424 nM; in data set [3], 28 nM; in [4], 32 nM; in data set [5] it was above 1000 nM; in data set [1], 371 nM.
Take `CCCC(=O)OCN1CCN(c2ccc(Nc3ncc4c(C)c(C(C)=O)c(=O)n(C5CCCC5)c4n3)nc2)CC1`: the IC50 in data set [1] is above 2000 nM.
On the same count and under the same terms, the value for `CCOC(=O)CN1CCN(c2ccc(Nc3ncc4c(C)c(C(C)=O)c(=O)n(C5CCCC5)c4n3)nc2)CC1` was above 2000 nM; that for `CC(=O)c1c(C)c2cnc(Nc3ccc(N4CCN(C(=O)CCC(=O)O)CC4)cn3)nc2n(C2CCCC2)c1=O` was above 2000 nM; that for `COC(=O)N1CCN(c2ccc(Nc3ncc4c(C)c(C(C)=O)c(=O)n(C5CCCC5)c4n3)nc2)CC1` was above 2000 nM.
Consider `CC(=O)c1c(C)c2cnc(Nc3ccc(N4CCNCC4)cn3)nc2n(C2CCCC2)c1=O` [PALBOCICLIB], for which the IC50 in data set [2] was 137 nM; in data set [5] it was 580 nM; in data set [1] it was 240 nM. In addition, the TGI result with MCF7 [6] was “Active”.
Turning to `CC(=O)c1c(C)c2cnc(Nc3ccc(N4CCN(C(=O)OCC(C)C)CC4)cn3)nc2n(C2CCCC2)c1=O`, in data set [1], the half-inhibitory concentration (IC50) was above 2000 nM.
On to `CC(=O)c1c(C)c2cnc(Nc3ccc(N4CCN(C(=O)OC(C)C)CC4)cn3)nc2n(C2CCCC2)c1=O`, for which the IC50 in [1] is above 2000 nM.
With `CCN1CCN(c2ccc(Nc3ncc4c(C)c(C(C)=O)c(=O)n(C5CCCC5)c4n3)nc2)CC1`, the half-inhibitory concentration (IC50) was 487 nM in data set [2]; 34 nM in [3]; 25 nM in [4]; above 1000 nM in data set [5]; 542 nM in data set [1].
For the compound `CC(=O)c1c(C)c2cnc(Nc3ccc(N4CCN(C(C)=O)CC4)cn3)nc2n(C2CCCC2)c1=O`, the IC50 in [1] was above 2000 nM.
For the compound `CC(=O)c1c(C)c2cnc(Nc3ccc(N4CCN(CCC(=O)O)CC4)cn3)nc2n(C2CCCC2)c1=O`, in data set [1], the half-inhibitory concentration (IC50) was above 2000 nM.
As to `CC(=O)c1c(C)c2cnc(Nc3ccc(N4CCN(C(=O)CNCCN)CC4)cn3)nc2n(C2CCCC2)c1=O`, the IC50 in [2] came to 259 nM; in data set [3] it was 23 nM; in data set [4], 19 nM; in data set [5] it was 436 nM; in data set [1], 223 nM. In the data set with MCF7 [7], the TGI result was “Active”. Also, the Activity entry with Rattus norvegicus [8] was “Non-Toxic”.
Take `CCCCCOC(=O)N1CCN(c2ccc(Nc3ncc4c(C)c(C(C)=O)c(=O)n(C5CCCC5)c4n3)nc2)CC1`: in data set [1], the IC50 was above 2000 nM.
Consider `CCOC(=O)CCN1CCN(c2ccc(Nc3ncc4c(C)c(C(C)=O)c(=O)n(C5CCCC5)c4n3)nc2)CC1`, for which the IC50 in data set [1] was above 2000 nM.
Take `COCCN1CCN(c2ccc(Nc3ncc4c(C)c(C(C)=O)c(=O)n(C5CCCC5)c4n3)nc2)CC1`: in data set [1], the half-inhibitory concentration (IC50) stood at 893 nM.
Still for that read-out and setting: in the case of `CC(=O)c1c(C)c2cnc(Nc3ccc(N4CCN(CCO)CC4)cn3)nc2n(C2CCCC2)c1=O` it was 689 nM; in that of `CCCOC(=O)N1CCN(c2ccc(Nc3ncc4c(C)c(C(C)=O)c(=O)n(C5CCCC5)c4n3)nc2)CC1`, above 2000 nM.
In the case of `COCCCNCC(=O)N1CCN(c2ccc(Nc3ncc4c(C)c(C(C)=O)c(=O)n(C5CCCC5)c4n3)nc2)CC1`, the half-inhibitory concentration (IC50) came out at 93 nM in data set [2]; 18 nM in data set [3]; 13 nM in [4]; 559 nM in [5]; 105 nM in data set [1]. The Activity result in the data set with Rattus norvegicus [9] was “Non-Toxic”. The TGI result in the data set with MCF7 [10] is “Active”.
